ChEMBL document CHEMBL5120836, “Discovery of novel 7,8-dihydropteridine-6(5H)-one-based DNA-PK inhibitors as potential anticancer agents via scaffold hopping strategy” (Eur J Med Chem, 2022)
Converted amounts (≈) assume the structure as drawn. Each block holds one molecule with its values, some of them ahead of it. The source made the active and inactive calls. No cut-off for these calls is given here.

Tests used:
[1] = target: DNA-dependent protein kinase catalytic subunit (Homo sapiens, UniProt P78527); test: Inhibition of human native full length DNA-PK by ADP-Glo assay
HCT-116 [2] = test: Disruption of mitochondrial function in human HCT-116 cells assessed as decrease in mitochondrial membrane potential by measuring proportion of cells with red fluorescence at 1 uM incubated for 24 hrs by JC-1 staining based flow cytometry (reference value: 99.4%); assay type: functional; design: scale not given: the % may be the effect or the level left
[3] = Kinetic solubility of the compound in phosphate-buffered solution at pH 6.4 incubated for 24 hrs by HPLC-MS/MS analysis; assay type: physicochemical; settings: phosphate buffer, read-out: Kinetic_solubility
[4] = Toxicity in BALB/c nude mouse xenografted with human HL-60 cells assessed as effect on body weight at 100 mg/kg, po qd for 16 days co-administered with doxorubicin; assay type: organism-based; settings: in vivo, 384 h, time 16 day
HCT-116 [5] = test: Synergistic antiproliferative activity against human HCT-116 cells assessed as combination index at 1 uM in presence of 100 nM doxorubicin by MTT assay; assay type: functional
HL-60 [6] = test: Synergistic antitumor activity against human HL-60 cells xenografted in BALB/c nude mouse assessed as tumor volume at 100 mg/kg, po qd for 16 days co-administered with doxorubicin (reference value: 32.2%); assay type: functional; settings: HL-60, 384 h, time 16 day
HCT-116 [7] = test: Induction of apoptosis in human HCT-116 cells assessed as early apoptotic cells at 1 uM incubated for 24 hrs by AnnexinV-FITC/PI staining based flow cytometry (reference value: 3.04%); assay type: functional
HCT-116 [8] = test: Induction of cell cycle arrest in human HCT-116 cells assessed as increase in accumulation of cells at […] at 1 uM incubated for 24 hrs in presence of 100 nM doxorubicin by PI staining based flow cytometry; assay type: functional
HCT-116 [9] = test: Induction of apoptosis in human HCT-116 cells assessed as necrotic cells at 1 uM incubated for 24 hrs in presence of 100 nM doxorubicin by AnnexinV-FITC/PI staining based flow cytometry (reference value: 0.031%); assay type: functional
[10] = MRT (0 to infinity) in Sprague-Dawley rat at 5 mg/kg, po; assay type: ADME, organism-based; settings: in vivo
[11] = Plasma protein binding in human assessed as free fraction; assay type: ADME, cell-free
[12] = Kinetic solubility of the compound in phosphate-buffered solution at pH 7.4 incubated for 24 hrs by HPLC-MS/MS analysis; assay type: physicochemical; settings: phosphate buffer, read-out: Kinetic_solubility
HCT-116 [13] = test: Induction of apoptosis in human HCT-116 cells assessed as late apoptotic cells at 1 uM incubated for 24 hrs in presence of 100 nM doxorubicin by AnnexinV-FITC/PI staining based flow cytometry (reference value: 3.07%); assay type: functional
[14] = Cmax in Sprague-Dawley rat at 5 mg/kg, po; assay type: ADME, organism-based; design: dose 5 mg/kg, route po; settings: in vivo
HCT-116 [15] = test: Disruption of mitochondrial function in human HCT-116 cells assessed as decrease in mitochondrial membrane potential by measuring proportion of cells with green fluorescence at 1 uM incubated for 24 hrs by JC-1 staining based flow cytometry (reference value: 0.566%); assay type: functional; design: scale not given: the % may be the effect or the level left
HCT-116 [16] = test: Induction of apoptosis in human HCT-116 cells assessed as late apoptotic cells at 1 uM incubated for 24 hrs by AnnexinV-FITC/PI staining based flow cytometry (reference value: 3.07%); assay type: functional
[17] = Plasma protein binding in rat assessed as free fraction; assay type: ADME, cell-free
[18] = Lipophilicity, logP of the compound; assay type: physicochemical; settings: octanol/water
HCT-116 [19] = test: Induction of apoptosis in human HCT-116 cells assessed as viable cells at 1 uM incubated for 24 hrs by AnnexinV-FITC/PI staining based flow cytometry (reference value: 93.9%); assay type: functional; settings: read-out: Activity
[20] = AUC (0 to infinity) in Sprague-Dawley rat at 5 mg/kg, po; assay type: ADME, organism-based; design: time infinity, dose 5 mg/kg, route po; settings: in vivo
HL-60 [21] = test: Synergistic antitumor activity against human HL-60 cells xenografted in BALB/c nude mouse assessed as tumor weight at 100 mg/kg, po qd for 16 days co-administered with doxorubicin (reference value: 27.9%); assay type: functional; settings: HL-60, 384 h, time 16 day
[22] = Tmax in Sprague-Dawley rat at 5 mg/kg, po; assay type: ADME, organism-based; settings: in vivo
HCT-116 [23] = test: Induction of apoptosis in human HCT-116 cells assessed as viable cells at 1 uM incubated for 24 hrs in presence of 100 nM doxorubicin by AnnexinV-FITC/PI staining based flow cytometry (reference value: 93.9%); assay type: functional; settings: read-out: Activity
HCT-116 [24] = test: Antiproliferative activity against human HCT-116 cells assessed as inhibition of cell growth incubated for 48 hrs in presence of 100 nM doxorubicin by MTT assay; assay type: functional, cell-based; settings: HCT-116, 48 h
[25] = Toxicity in BALB/c nude mouse xenografted with human HL-60 cells assessed as effect on body weight at 100 mg/kg, po qd for 16 days; assay type: organism-based; settings: in vivo, 384 h, time 16 day
HCT-116 [26] = test: Induction of cell cycle arrest in human HCT-116 cells assessed as increase in accumulation of cells at G2/M phase at 1 uM incubated for 24 hrs in presence of 100 nM doxorubicin by PI staining based flow cytometry; assay type: functional
HCT-116 [27] = test: Antiproliferative activity against human HCT-116 cells assessed as inhibition of cell growth incubated for 48 hrs by MTT assay; assay type: functional, cell-based; settings: HCT-116, 48 h
HCT-116 [28] = test: Induction of apoptosis in human HCT-116 cells assessed as necrotic cells at 1 uM incubated for 24 hrs by AnnexinV-FITC/PI staining based flow cytometry (reference value: 0.031%); assay type: functional
HCT-116 [29] = test: Induction of apoptosis in human HCT-116 cells assessed as early apoptotic cells at 1 uM incubated for 24 hrs in presence of 100 nM doxorubicin by AnnexinV-FITC/PI staining based flow cytometry (reference value: 3.04%); assay type: functional

Chain of DNA-dependent protein kinase catalytic subunit (P78527 whole entry): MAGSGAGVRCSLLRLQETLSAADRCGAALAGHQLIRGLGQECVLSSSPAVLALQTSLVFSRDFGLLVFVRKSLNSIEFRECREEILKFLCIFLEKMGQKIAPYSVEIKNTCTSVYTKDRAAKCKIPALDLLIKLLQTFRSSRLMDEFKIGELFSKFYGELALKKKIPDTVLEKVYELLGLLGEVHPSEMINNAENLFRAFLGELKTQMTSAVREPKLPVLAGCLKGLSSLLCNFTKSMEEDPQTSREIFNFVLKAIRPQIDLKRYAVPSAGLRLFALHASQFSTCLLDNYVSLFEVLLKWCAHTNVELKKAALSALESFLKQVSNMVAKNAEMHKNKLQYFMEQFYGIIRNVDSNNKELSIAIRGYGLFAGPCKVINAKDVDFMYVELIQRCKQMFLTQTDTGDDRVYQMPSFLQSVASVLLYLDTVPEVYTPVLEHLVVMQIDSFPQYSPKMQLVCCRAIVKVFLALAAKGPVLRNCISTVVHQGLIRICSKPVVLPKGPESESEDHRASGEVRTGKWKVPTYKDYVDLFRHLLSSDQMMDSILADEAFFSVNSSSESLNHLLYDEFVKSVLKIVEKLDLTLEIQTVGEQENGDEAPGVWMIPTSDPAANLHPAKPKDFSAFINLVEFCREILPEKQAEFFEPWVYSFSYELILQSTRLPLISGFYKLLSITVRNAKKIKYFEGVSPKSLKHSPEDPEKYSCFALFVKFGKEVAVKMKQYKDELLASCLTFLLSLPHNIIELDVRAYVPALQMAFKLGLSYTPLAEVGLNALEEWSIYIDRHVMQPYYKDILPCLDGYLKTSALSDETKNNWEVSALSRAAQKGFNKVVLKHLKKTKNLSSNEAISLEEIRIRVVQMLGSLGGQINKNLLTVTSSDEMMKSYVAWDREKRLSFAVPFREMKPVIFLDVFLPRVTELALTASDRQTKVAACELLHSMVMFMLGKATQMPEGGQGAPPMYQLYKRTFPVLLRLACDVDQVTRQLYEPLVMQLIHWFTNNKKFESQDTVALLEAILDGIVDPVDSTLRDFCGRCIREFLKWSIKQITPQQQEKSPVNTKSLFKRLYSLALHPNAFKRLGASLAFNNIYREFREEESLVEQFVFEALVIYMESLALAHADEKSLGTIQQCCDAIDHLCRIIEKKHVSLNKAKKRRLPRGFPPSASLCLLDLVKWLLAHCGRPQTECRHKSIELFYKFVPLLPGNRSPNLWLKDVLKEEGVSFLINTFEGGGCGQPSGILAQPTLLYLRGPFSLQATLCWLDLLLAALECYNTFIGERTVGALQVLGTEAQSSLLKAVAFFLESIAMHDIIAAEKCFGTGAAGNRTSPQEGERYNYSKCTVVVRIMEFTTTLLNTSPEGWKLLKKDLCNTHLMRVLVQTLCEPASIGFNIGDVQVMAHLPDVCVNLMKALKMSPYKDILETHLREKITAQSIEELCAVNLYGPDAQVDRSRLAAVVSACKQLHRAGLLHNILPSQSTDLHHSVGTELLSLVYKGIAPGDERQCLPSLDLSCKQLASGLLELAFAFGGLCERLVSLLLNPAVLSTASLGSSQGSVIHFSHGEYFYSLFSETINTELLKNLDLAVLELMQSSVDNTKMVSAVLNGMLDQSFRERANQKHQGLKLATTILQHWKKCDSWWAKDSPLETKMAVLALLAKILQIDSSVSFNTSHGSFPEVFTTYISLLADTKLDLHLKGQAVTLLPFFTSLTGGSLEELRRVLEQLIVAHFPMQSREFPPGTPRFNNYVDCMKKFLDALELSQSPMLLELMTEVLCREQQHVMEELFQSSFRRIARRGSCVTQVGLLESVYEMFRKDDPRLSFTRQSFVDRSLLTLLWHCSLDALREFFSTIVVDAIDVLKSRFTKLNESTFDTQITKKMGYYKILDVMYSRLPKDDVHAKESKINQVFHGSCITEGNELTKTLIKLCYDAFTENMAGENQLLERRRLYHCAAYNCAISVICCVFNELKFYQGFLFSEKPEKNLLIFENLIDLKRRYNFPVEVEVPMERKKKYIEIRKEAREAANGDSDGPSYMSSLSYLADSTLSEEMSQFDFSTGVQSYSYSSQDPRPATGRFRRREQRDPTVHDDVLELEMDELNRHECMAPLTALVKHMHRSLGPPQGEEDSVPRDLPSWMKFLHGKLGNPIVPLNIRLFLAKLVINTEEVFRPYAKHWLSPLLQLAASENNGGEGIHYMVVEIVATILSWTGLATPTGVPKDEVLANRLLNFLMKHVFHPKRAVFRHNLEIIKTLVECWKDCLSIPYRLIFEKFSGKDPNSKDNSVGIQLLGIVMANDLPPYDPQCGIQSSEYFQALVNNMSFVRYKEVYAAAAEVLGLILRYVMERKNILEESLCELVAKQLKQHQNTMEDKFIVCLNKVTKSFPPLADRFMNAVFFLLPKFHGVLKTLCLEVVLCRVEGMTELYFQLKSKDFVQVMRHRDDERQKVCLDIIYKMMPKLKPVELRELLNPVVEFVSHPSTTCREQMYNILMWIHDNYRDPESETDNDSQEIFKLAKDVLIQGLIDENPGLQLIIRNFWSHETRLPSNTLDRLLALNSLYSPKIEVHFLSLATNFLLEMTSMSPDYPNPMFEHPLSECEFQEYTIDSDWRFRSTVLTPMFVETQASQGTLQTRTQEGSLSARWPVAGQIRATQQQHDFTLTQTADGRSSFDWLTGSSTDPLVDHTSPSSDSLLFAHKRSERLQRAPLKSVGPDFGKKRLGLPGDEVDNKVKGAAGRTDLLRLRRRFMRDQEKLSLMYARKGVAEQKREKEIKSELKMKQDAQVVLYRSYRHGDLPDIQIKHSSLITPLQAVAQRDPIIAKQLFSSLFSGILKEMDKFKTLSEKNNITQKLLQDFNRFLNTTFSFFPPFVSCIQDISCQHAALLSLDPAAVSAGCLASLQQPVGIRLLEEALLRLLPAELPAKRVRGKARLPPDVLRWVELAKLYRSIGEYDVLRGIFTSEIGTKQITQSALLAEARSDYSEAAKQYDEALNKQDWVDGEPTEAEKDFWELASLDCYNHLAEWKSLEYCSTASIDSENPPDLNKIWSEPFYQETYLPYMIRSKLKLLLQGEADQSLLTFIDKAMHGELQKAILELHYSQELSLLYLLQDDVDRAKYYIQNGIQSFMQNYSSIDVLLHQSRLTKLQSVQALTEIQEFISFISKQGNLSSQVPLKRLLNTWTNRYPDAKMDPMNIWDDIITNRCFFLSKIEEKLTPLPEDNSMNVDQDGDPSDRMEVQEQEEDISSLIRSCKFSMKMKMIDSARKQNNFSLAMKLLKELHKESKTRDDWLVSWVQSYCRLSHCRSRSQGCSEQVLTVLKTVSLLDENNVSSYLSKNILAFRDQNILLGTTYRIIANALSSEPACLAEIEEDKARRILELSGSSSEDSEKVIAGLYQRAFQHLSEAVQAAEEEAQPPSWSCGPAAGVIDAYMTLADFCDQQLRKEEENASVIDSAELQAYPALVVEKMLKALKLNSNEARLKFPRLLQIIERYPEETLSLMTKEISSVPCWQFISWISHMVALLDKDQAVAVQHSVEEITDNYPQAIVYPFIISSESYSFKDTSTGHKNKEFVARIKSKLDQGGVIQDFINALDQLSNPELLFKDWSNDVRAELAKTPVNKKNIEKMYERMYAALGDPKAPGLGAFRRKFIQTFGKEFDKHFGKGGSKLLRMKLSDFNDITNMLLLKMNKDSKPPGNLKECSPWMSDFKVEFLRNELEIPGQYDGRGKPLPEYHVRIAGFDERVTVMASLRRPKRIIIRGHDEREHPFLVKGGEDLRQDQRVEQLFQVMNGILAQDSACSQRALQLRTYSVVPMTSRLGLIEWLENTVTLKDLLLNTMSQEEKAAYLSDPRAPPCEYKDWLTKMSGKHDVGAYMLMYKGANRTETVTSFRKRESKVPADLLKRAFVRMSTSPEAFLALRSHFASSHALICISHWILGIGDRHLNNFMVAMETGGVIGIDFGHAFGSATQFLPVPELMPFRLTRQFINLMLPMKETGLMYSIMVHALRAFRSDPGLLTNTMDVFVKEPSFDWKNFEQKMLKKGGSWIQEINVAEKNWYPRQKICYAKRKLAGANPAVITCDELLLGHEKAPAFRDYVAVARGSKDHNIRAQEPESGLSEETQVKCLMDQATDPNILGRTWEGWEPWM

- IC50 [1]: 47.9 nM
SMILES: Cc1cc2ncnn2cc1Nc1ncc2c(n1)C(C)(C)C(=O)N2C

- IC50 [1]: 3.26 nM
SMILES: Cc1cc2nccnc2cc1Nc1ncc2c(n1)N(C1CCOCC1)CC(=O)N2C

- IC50 [1]: 21.4 nM
SMILES: Cc1cc2ncnn2cc1Nc1ncc2c(n1)C1(CCC1)C(=O)N2C

SMILES: Cc1cc2ncnn2cc1Nc1ncc2c(n1)n(C1CCOCC1)c(=O)n2C [AZD-7648]
- Activity (HCT-116 [2]): 92.2%
- solubility kinetic at 24 h [3]: 101 µg/mL (≈ 266 µM)
- Activity [4]: Non-Toxic
- CI (HCT-116 [5]): 0.79
- inhibition in vivo at 100 mg/kg (HL-60 [6]): 68.1%
- Activity (HCT-116 [7]): 2.76%
- Activity (HCT-116 [8]): Active
- Activity (HCT-116 [9]): 0.102%
- MRT inf [10]: 2.51 h
- fraction unbound [11]: 0.834
- solubility kinetic at 24 h [12]: 120 µg/mL (≈ 316 µM)
- Activity (HCT-116 [13]): 7.33%
- Cmax [14]: 1500 ng/mL
- Activity (HCT-116 [15]): 7.64%
- Activity (HCT-116 [16]): 4.53%
- fraction unbound [17]: 0.653
- logP [18]: 1.2
- viability at 1 µM (HCT-116 [19]): 92.7%
- AUC(0-inf) [20]: 5240 ng·h/mL
- inhibition in vivo at 100 mg/kg (HL-60 [21]): 55.3%
- Tmax [22]: 0.83 h
- viability at 1 µM (HCT-116 [23]): 82.3%
- IC50 (HCT-116 [24]): 19500 nM
- Activity [25]: Non-Toxic
- Activity (HCT-116 [26]): 64.46%
- IC50 (HCT-116 [27]): 35300 nM
- Activity (HCT-116 [28]): 0.05%
- Activity (HCT-116 [29]): 10.3%

- IC50 [1]: 10.5 nM
SMILES: Cc1cc2ncccc2cc1Nc1ncc2c(n1)C1(CCOCC1)C(=O)N2C

- IC50 [1]: 135 nM
SMILES: CCN1C(=O)C2(CCOCC2)c2nc(Nc3cn4ncnc4cc3C)ncc21

- IC50 [1]: 25.5 nM
SMILES: Cc1cc2ncnn2cc1Nc1ncc2c(n1)N(C1CCOCC1)CC(=O)N2C(C)C

- IC50 [1]: 126 nM
SMILES: [2H]C([2H])([2H])N1C(=O)C2(CCOCC2)c2nc(Nc3cn4ncnc4cc3C)ncc21

- IC50 [1]: 220 nM
SMILES: Cc1cc2ncnn2cc1Nc1ncc2c(n1)C1(CCOCC1)C(=O)N2C(C)C

- IC50 [1]: 3.37 nM
SMILES: CCN1C(=O)CN(C2CCOCC2)c2nc(Nc3cn4ncnc4cc3C)ncc21

- IC50 [1]: 6.76 nM
SMILES: Cc1cc2ncnn2cc1Nc1ncc2c(n1)N(C1CCOCC1)CC(=O)N2C1CC1

- IC50 [1]: 6.9 nM
SMILES: Cc1cc2ncccc2cc1Nc1ncc2c(n1)N(C1CCOCC1)CC(=O)N2C

- IC50 [1]: 16.9 nM
SMILES: Cc1cc2ncnn2cc1Nc1ncc2c(n1)C1(CCC(OCC(F)F)CC1)C(=O)N2C (stereo unspecified)

- IC50 [1]: 7.06 nM
SMILES: Cc1cc2ncnn2cc1Nc1ncc2c(n1)N(C1CCOCC1)CC(=O)N2
